From ChEMBL document CHEMBL1833872, “Improved synthesis and biological evaluation of chelator-modified α-MSH analogs prepared by copper-free click chemistry” (Bioorg Med Chem Lett, 2011) come the findings set out here.

Molecules are shown by their SMILES.

The target in the experiment is Melanocyte-stimulating hormone receptor (Mus musculus, UniProt Q01727). Put plainly: Displacement of [125I]-[Nle4-D-Phe7]-alpha-MSH from MC1R in mouse B16-F10 cells after 1.5 hrs by gamma counting. The format is cell-based. A general note: Displacement assays read how much labelled ligand stays bound in the presence of the test substance.
Melanocyte-stimulating hormone receptor, sequence (Q01727 whole entry): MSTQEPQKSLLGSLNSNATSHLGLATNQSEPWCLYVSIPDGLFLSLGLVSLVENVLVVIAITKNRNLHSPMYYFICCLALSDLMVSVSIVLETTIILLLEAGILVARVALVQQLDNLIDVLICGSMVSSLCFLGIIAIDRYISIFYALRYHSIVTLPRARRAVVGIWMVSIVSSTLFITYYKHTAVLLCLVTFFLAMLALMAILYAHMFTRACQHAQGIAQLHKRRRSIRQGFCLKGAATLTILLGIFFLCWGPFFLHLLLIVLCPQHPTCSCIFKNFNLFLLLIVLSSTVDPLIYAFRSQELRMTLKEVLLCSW

The term IC50 denotes the midpoint of a concentration-inhibition curve. For the molecule `CCCC[C@H](NC(=O)[C@H](CO)NC(=O)[C@H](Cc1ccc(O)cc1)NC(=O)[C@H](CO)NCCCCCCN=[N+]=[N-])C(=O)N[C@@H](CCC(=O)O)C(=O)N[C@@H](Cc1cnc[nH]1)C(=O)N[C@H](Cc1ccccc1)C(=O)N[C@@H](CCCN=C(N)N)C(=O)N[C@@H](Cc1c[nH]c2ccccc12)C(=O)NCC(=O)N[C@@H](CCCCN)C(=O)N1CCC[C@H]1C(=O)N[C@H](C(N)=O)C(C)C`, the IC50 was 0.25 nM.
